Source: US20160089365A1, “IMMUNOSTIMULATORY COMPOUND” (Eisai R&D Management Co., Ltd., priority 2014, published 2016)
Entries after “also recorded” stand apart in the source; their conditions may differ.

How the values were obtained:
[1] = system: tumor-associated macrophage (TAM) population in tumor; assay: Immune population analysis in BNL 1MEA.7R.1 xenograft tumor of wild-type mice by flow cytometry; assay type: in vivo, Mouse (BALB/cAnNCrlCrlj; settings: oral 10 mg/kg once a day for 7 days, Day 8
Protocol: Half-cut tumor samples collected from BNL 1MEA.7R.1 xenograft model in wild-type mice 1 day after the administration of vehicle or lenvatinib mesilate (10 mg/kg) in Referential Ex. 1 (Group 4, 6, 7, and 8) were minced with a razor on ice. The tumor fragments were digested with collagenase (1900 U/mL) and deoxyribonuclease I (160 KIU/mL) in HBSS for 1 hour at 37° C. with magnetic stirring in flasks. After filtering through cell strainer (pore size 70 μm), harvested cells were washed 3 times with flow cytometry buffer (PBS supplemented with 0.5% bovine serum albumin and 2 mmol/L EDTA). Cells were resuspended with 200 μL of FCM buffer containing 5 μg/mL Mouse BD Fc Block™ (BD biosciences), and incubated at 4° C. for 10 minutes. Antibody cocktail (dilution; 1:2 in FCM buffer) 1 and 2 were prepared as below.
One hundred microliters of cell suspension was mixed with 100 μL of the antibody cocktail 1 or 2 in each well of two 96-well cell culture round bottom plates (Corning Incorporated), and incubated at 4° C. for 30 minutes in a light protected. […] Data were analyzed by FCM analysis software FlowJo 7.6.5 (Tree Star, Inc.).
Data are expressed as mean±SD. The differences in percentage of target cells in CD45^+ cells between vehicle- and lenvatinib mesilate-treated groups were analyzed by the unpaired t test.

[2] = system: IFN-γ+ cells in CD8+ T cells of draining lymph nodes; assay: IFN-γ staining analysis of CD8+ T cells derived from draining lymph nodes in BNL 1MEA.7R.1 xenografts in wild-type mice; assay type: in vivo, Mouse (BALB/cAnNCrlCrlj; settings: oral 10 mg/kg once a day for 7 days, Day 8
Protocol: Draining lymph nodes derived from BNL 1MEA.7R. 1 xenograft model in wild-type mice 1 day after once-daily oral administration of vehicle or lenvatinib mesilate (10 mg/kg) for 7 days in Referential Ex. 1 were isolated and mashed by a 5-mL syringe. The cell number in suspension was calculated and adjusted to 2.0×10^6 cells/mL with RPMI1640 containing 10% FBS, 100 U/mL penicillin, and 100 μg/mL streptomycin. One hundred microliters per well of the resultant cell suspension were plated in a 96-well cell culture cluster round bottom plate (Corning Incorporated) and cultured with BD Goldi-Stop™ (final concentration [conc.] 4 μL/6 mL) for 5 hours in 5% CO2 at 37° C. […] After washing with 200 μL of BD Perm/Wash buffer 2 times, the resultant cells were resuspended with 200 μL of BD Perm/Wash buffer, and analyzed to detect percentage of IFN-γ-positive cells in CD3- and CD8-positive cells by FACSAriaII SORP cell sorter (Becton, Dickinson and company) with BD FACSDiva 6.1.3 software (Becton, Dickinson and company). […]
Data are expressed as mean±SD. The differences in percentage of IFN-γ-positive cells in CD8^+ T cells between vehicle- and lenvatinib mesilate-treated groups were analyzed by the unpaired t test

[3] = Body weight of mice during the xenograft study; assay type: in vivo, Mouse; settings: athymic and wild-type mice, oral 3 and 10 mg/kg once daily for 7 days, during the study period
Protocol: (§1) Lenvatinib mesilate (3 and 10 mg/kg) or vehicle was orally administered at 0.1 mL/10 g body weight, once daily for 7 days (Day 1-7). The tumor volume and body weight of mice were measured on Day 1, 3, 6, and 8.

[4] = system: BNL 1MEA.7R.1 murine hepatocellular carcinoma xenografts; assay: Antitumor effects in BNL 1MEA.7R.1 murine hepatocellular carcinoma xenografts in wild-type mice; assay type: in vivo, Mouse (BALB/cAnNCrlCrlj; settings: Day 8
Protocol: The BNL 1MEA.7R. 1 murine hepatocellular carcinoma cells were cultured in Dulbecco's minimal essential medium (DMEM) supplemented with 10% heat-inactivated (56° C., 30 minutes) fetal bovine serum (FBS) and 100 U/mL penicillin, 100 μg/mL streptomycin, 1-glutamine (2 mmol/L) in humidified atmosphere of 5% CO2 at 37° C. This tumor cell line was developed from BALB/c mouse. The cells were washed with phosphate buffered saline (PBS), harvested with 0.25% trypsin-EDTA, and suspended with 50% BD Matrigel™ (BD biosciences) in the Hank's balanced salt solution (HBSS) at a density of 1×10^8 cells/mL. A 0.1 mL aliquot of the cell suspension was inoculated subcutaneously into the right flank of each mouse. Fifty days after the inoculation (Day 1), 15 out of 25 athymic mice and 25 out of 33 wild-type mice were selected based on their tumor volumes, shapes of tumors, physical condition, and body weights. Then the selected athymic and wild-type mice were randomly divided into 3 groups (Group 1-3 in the following table “Treatment Groups”) and 5 groups (Group 4-8), respectively. Animals assigned to Group 4, 6, 7, and 8 were used in Ex. 1 and 2. The mean tumor volumes of athymic and wild-type mice assigned to 8 groups were 169.5 and 157.5 mm^3, respectively, on Day 1.
as §1
Tumor volume (mm^3)=length (mm)×width^2 (mm^2)×1/2
(§2) Data are expressed as mean±SD. The differences in relative tumor volume on Day 8 between vehicle- and lenvatinib mesilate-treated groups (3 and 10 mg/kg) in athymic and wild-type mice were analyzed by one-way analysis of variance followed by the Dunnett multiple comparison test, respectively. […]
To compare antitumor activities of lenvatinib mesilate between different strains, differences in % TGI of lenvatinib mesilate between athymic and wild-type mice at each dose were analyzed by the unpaired t test.

[5] = system: BNL 1MEA.7R.1 murine hepatocellular carcinoma xenografts; assay: Antitumor effects in BNL 1MEA.7R.1 murine hepatocellular carcinoma xenografts in athymic mice; assay type: in vivo, Mouse (CAnN.Cg-Foxn1nu/CrlCrlj; settings: oral 3 and 10 mg/kg once daily for 7 days, Day 8
Protocol: The BNL 1MEA.7R. 1 murine hepatocellular carcinoma cells were cultured in Dulbecco's minimal essential medium (DMEM) supplemented with 10% heat-inactivated (56° C., 30 minutes) fetal bovine serum (FBS) and 100 U/mL penicillin, 100 μg/mL streptomycin, 1-glutamine (2 mmol/L) in humidified atmosphere of 5% CO2 at 37° C. This tumor cell line was developed from BALB/c mouse. The cells were washed with phosphate buffered saline (PBS), harvested with 0.25% trypsin-EDTA, and suspended with 50% BD Matrigel™ (BD biosciences) in the Hank's balanced salt solution (HBSS) at a density of 1×10^8 cells/mL. A 0.1 mL aliquot of the cell suspension was inoculated subcutaneously into the right flank of each mouse. Fifty days after the inoculation (Day 1), 15 out of 25 athymic mice and 25 out of 33 wild-type mice were selected based on their tumor volumes, shapes of tumors, physical condition, and body weights. […]
Lenvatinib mesilate (3 and 10 mg/kg) or vehicle was orally administered at 0.1 mL/10 g body weight, once daily for 7 days (Day 1-7). The tumor volume and body weight of mice were measured on Day 1, 3, 6, and 8. […]
as §2

## COc1cc2nccc(Oc3ccc(NC(=O)NC4CC4)c(Cl)c3)c2cc1C(N)=O [lenvatinib mesilate, 4-(3-chloro-4-(cyclopropylaminocarbonyl)aminophenoxy)-7-methoxy-6-quinolinecarboxamide]
[1]
  percentage of TAM population (CD45+CD11b+Ly6G-F4/80+Ly6Clow) in total CD45+ cells compared to vehicle: significant reduction
  percentage of immature TAM (CD45+CD11b+Ly6G-F4/80-Ly6Chigh) in total CD45+ cells compared to vehicle: increased
[2]
  percentage of IFN-γ+ cells in CD8+ T cells in dLN compared to vehicle: significantly increased
[3]
  body weight loss: Any severe body weight loss was not observed
[4]; oral 3 and 10 mg/kg once daily for 7 days
  % TGI in wild-type mice compared to athymic mice at each dose: significantly larger
[4]; wild-type mice, both treatment groups (3 and 10 mg/kg)
  tumor shrinkage in individual animals: tumors from all animals shrank
[4]; wild-type mice, oral 3 and 10 mg/kg once daily for 7 days
  tumor volume compared to vehicle: significant reduction in tumor volume
[5]
  tumor volume compared to vehicle: no significant difference; also recorded: only tumor growth delay
